Assays:
[1] = molecular target: 20S proteasome peptidylglutamyl-peptide hydrolyzing activity (Bos taurus, UniProt Q3MHN0)
Protocol: (§1) Experiments involving the proteasome were performed as follows: 20S proteasome (˜5 ng/μl) in 10 mM Tris-HCl, pH 7.5, 1 mM EDTA was incubated at 25° C. in the presence of lactacystin or lactacystin analogs in DMSO or MeOH [not exceeding 5% (v/v)]. Aliquots for fluorescence assay were removed at various times following addition of compound and diluted in 10 mM Tris-HCl, pH 7.5, 1 mM EDTA containing fluorogenic peptide substrates (100 μM final). Suc-LLVY-AMC, Cbz-GGR-βNA and […] (AMC=7-amido-4-methylcoumarin; βNA=β-naphthylamide) were used to assay for the chymotrypsin-like, trypsin-like and peptidylglutamyl-peptide hydrolyzing activities, respectively.
(§2) Fluorescent emission at 460 nm with excitation at 380 nm was measured for AMC-containing substrates, and emission at 410 nm with excitation at 335 nm was measured for βNA-containing substrates. The fluorescence assays were conducted at 25° C., each experiment was performed at least three times, and values represent mean±standard deviation.
(§3) The reversibility of the inhibitory effects was assessed by measuring residual peptidase activity after removal of excess inhibitor by extensive serial dilution/ultrafiltration.

[2] = molecular target: T1, 20S proteasome chymotrypsin-like activity (Bos taurus, UniProt Q32KL2); experiment: Kinetics of inhibition of 20S proteasome chymotrypsin-like activity (Suc-LLVY-AMC); format: biochemical, bovine
T1 construct: from tissue; host or cells: bovine brain
Protocol: as §1, §2, §3

[3] = molecular target: T2, 20S proteasome trypsin-like activity (Bos taurus, UniProt Q2TBP0); experiment: Kinetics of inhibition of 20S proteasome trypsin-like activity (Cbz-GGR-βNA); format: biochemical, bovine
T2 construct: from tissue; host or cells: bovine brain
Protocol: as §1, §2, §3

IκB-α = experiment: TNF-α dependent degradation of IκB-α in Hela cells (immunoblot); format: cell-based, human; conditions: 5 μM, 1 h pretreatment, 1,000 U/ml TNF-α
Protocol: Hela cells were plated onto 6-well plates in DME plus 10% fetal calf serum (3 mls/well). Cells were then pretreated with 0.125% DMSO 40 μM […] (carbobenzoxyl-leucinyl-leucinyl-leucinal-H)(40 μM, lanes 103), or 5 μM β-lactone for one hour, followed by treatment with 1,000 U/ml TNF-α or phosphate buffered saline (PBS). Cells were harvested after 0 min, 20 min, or 40 min of further incubation at 37° C. Cells were then lysed in buffer containing NP-40 and protease inhibitors, and the proteins separated on a 10% SDS-polyacrylamide gel. The proteins were then transferred to nitrocellulose and probed with antibodies against the C-terminal 20 amino acids of human IκB-α.

[4] = residual activity after removal of excess inhibitor by serial dilution/ultrafiltration

In the case of `CC(C)[C@H](O)[C@@]12NC(=O)[C@H](C)[C@@H]1OC2=O` [β-Lactone, clasto-lactacystin β-lactone], the “κassoc = κobs/[I], Peptidylglutamyl-peptide hydrolyzing activity (Cbz-LLE-βNA)” value ([1]; compound 50 μM, 25° C.) is reported as 59 ± 17 s^−1M^−1, the “PGPH activity inhibited faster than by lactacystin” value ([1]; relative to lactacystin) is reported as 15-20 times and the “reversibility of inhibition of PGPH activity” value [1, 4] is reported as “reversibly”. The “κassoc = κobs/[I], Chymotrypsin-like activity (Suc-LLVY-AMC)” value ([2]; compound 1 μM, 25° C.) was 3059 ± 478 s^−1M^−1, the “chymotrypsin-like activity inhibited faster than by lactacystin” value ([2]; relative to lactacystin) was 15-20 times and the “reversibility of inhibition of chymotrypsin-like activity” value [2, 4] was “irreversibly”. For the same compound, the “κassoc = κobs/[I], Trypsin-like activity (Cbz-GGR-βNA)” value ([3]; compound 5 μM, 25° C.) was 208 ± 21 s^−1M^−1, the “trypsin-like activity inhibited faster than by lactacystin” value ([3]; relative to lactacystin) was 15-20 times and the “reversibility of inhibition of trypsin-like activity” value [3, 4] was “irreversibly”. For the same compound, the “degradation of IκB after TNF induction” value (IκB-α) was “blocks degradation” and the “phosphorylated form of IκB” value (IκB-α) was “stabilizes the phosphorylated form”.

Reference: patent US6838477B2, “Lactacystin analogs” (President and Fellows of Harvard College, priority 1995, dated 2005)
